Experimental data reported in PMC9502272, “A Metabolomics Approach for Predicting OATP1B-Type Transporter-Mediated Drug–Drug Interaction Liabilities” (Pharmaceutics, 2022).
Where a name gives a salt, the structure may show the parent alone.

Target: T1, Oatp1b2 (Mus musculus, UniProt Q9JJL3)
T1 sequence (Q9JJL3 1-689): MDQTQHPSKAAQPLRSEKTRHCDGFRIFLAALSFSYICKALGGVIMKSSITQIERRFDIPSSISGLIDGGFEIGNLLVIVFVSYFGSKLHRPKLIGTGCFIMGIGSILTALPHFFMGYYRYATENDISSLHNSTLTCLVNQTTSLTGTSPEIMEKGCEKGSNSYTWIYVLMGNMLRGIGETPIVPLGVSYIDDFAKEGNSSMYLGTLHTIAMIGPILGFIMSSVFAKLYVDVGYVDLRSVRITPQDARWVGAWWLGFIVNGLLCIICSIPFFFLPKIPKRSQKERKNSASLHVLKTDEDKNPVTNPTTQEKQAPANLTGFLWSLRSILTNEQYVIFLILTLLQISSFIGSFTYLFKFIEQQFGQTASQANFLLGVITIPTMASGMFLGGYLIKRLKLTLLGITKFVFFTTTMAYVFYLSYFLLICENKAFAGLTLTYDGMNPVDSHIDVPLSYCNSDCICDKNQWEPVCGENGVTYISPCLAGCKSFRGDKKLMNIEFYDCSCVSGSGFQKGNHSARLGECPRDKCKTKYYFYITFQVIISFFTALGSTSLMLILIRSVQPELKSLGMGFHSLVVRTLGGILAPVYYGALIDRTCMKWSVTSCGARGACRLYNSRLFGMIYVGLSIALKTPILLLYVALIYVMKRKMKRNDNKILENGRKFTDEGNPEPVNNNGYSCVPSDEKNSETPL
Experiment: Untargeted metabolomics of plasma from untreated wild-type and Oatp1b2(−/−) mice
Conditions: for Fold of Change KO/WT: plasma of untreated Oatp1b2-deficient (KO) vs wild-type (WT) mice, semi-quantitative, positive = higher in KO, n = 6 per group; for Mean value KO: plasma of untreated Oatp1b2-deficient mice; for Mean value KO / Mean value WT: raw area counts rescaled to median = 1; for Mean value WT: plasma of untreated wild-type mice

Molecule | Fold of Change KO/WT | Mean value KO | Mean value WT
CCCCCCCC/C=C\CCCCCCCC(=O)O[C@H](CO/C=C\CCCCCCCCCCCCCC)COP(=O)(O)OCCN [1-(1-enyl-palmitoyl)-2-oleoyl-GPE (P-16:0/18:1)] | 1.32 | 1.18 | .895
Cc1ccc(O[C@@H]2O[C@H](C(=O)O)[C@@H](O)[C@H](O)[C@H]2O)cc1 [p-cresol glucuronide] | 11.8 | 5.92 | .503
O=S(=O)(O)Oc1ccc(O)cc1 [hydroquinone sulfate] | 1.55 | 1.32 | .849
O=C(O)CCCCCCCCCCCCCCCCCC(=O)O [nonadecanedioate (C19-DC)] | 1.44 | 1.30 | .902
CCCCCCCCCCCCCCCCC(=O)OC(CC(=O)[O-])C[N+](C)(C)C (centres unmarked) [margaroylcarnitine (C17)] | 1.59 | 1.21 | .764
Cc1ccc(OS(=O)(=O)O)cc1 [p-cresol sulfate] | 9.29 | 4.66 | .501
CCCCCC=CCC=CCCCCCCCC(=O)OCC(O)COP(=O)(O)OCC(O)CO (centres unmarked) [1-linoleoyl-GPG (18:2)] | 3.71 | 1.96 | .529
CCCC(=O)NCC(=O)O [butyrylglycine] | 1.72 | 1.28 | .744
CC/C=C\C/C=C\C/C=C\C/C=C\C/C=C\C/C=C\CCC(=O)O[C@H](COC(=O)CCCCCCC/C=C\CCCCCCCC)COP(=O)([O-])OCC[N+](C)(C)C [1-oleoyl-2-docosahexaenoyl-GPC (18:1/22:6)] | 1.34 | 1.17 | .874
sphingomyelin (d18:1/14:0, d16:1/16:0) |  |  | .930
eicosenedioate (C20:1-DC) | 5.36 | 1.80 | .335
(N(1) + N(8))-acetylspermidine |  |  | .931
CCCCC/C=C\C/C=C\CCCCCCCCCC(=O)OC(CC(=O)[O-])C[N+](C)(C)C (centres unmarked) [dihomo-linoleoylcarnitine (C20:2)] | 1.75 | 1.37 | .785
O=C(O)CCCCCCCCCCCCCCCCC(=O)O [octadecanedioate (C18-DC)] | 1.38 | 1.27 | .916
C[C@H](CCC(=O)O)[C@H]1CC[C@H]2[C@@H]3CC[C@@H]4C[C@H](O)CC[C@]4(C)[C@H]3C[C@H](OS(=O)(=O)O)[C@]12C [deoxycholic acid 12-sulfate] | 1.25 | 1.06 | .851
CCC(CO)C(=O)O (centres unmarked) [3-hydroxy-2-ethylpropionate] | 1.25 | 1.10 | .879
OC[C@H]1O[C@@H](n2cnc3c(O)ncnc32)[C@H](O)[C@@H]1O [inosine] | 2.07 | 1.49 | .719
CCCCC/C=C\C/C=C\C/C=C\C/C=C\CCCC(=O)OC[C@@H](O)COP(=O)(O)OCCN [1-arachidonoyl-GPE (20:4n6)] | 1.49 | 1.20 | .803
Cc1ccc(OS(=O)(=O)O)c(N)c1 [2-amino-p-cresol sulfate] | 4.28 | 1.86 | .435
CCCCCCCCCCCCCCCCCCCCCCCC(=O)OC[C@@H](O)COP(=O)([O-])OCC[N+](C)(C)C [1-lignoceroyl-GPC (24:0)] | 1.36 | 1.16 | .847
COP(=O)(O)O [methylphosphate] | 1.27 | 1.08 | .848
C/C=C(\C)C(=O)NCC(=O)O [tigloylglycine] | 1.38 | 1.22 | .883
C[C@H](CCC(=O)O)[C@H]1CC[C@H]2[C@@H]3C[C@H](O)[C@@H]4C[C@@H](O)CC[C@]4(C)[C@H]3CC[C@]12C [isohyodeoxycholate] | 2.46 | 0.940 | .382

Molecule | Fold of Change KO/WT | Mean value KO | Mean value WT
CCCCCCCC/C=C\CCCCCCCC(=O)OCC(O)COP(=O)(O)OCC(O)CO (centres unmarked) [1-oleoyl-GPG (18:1)] | 8.19 | 1.80 | .219
CCO[C@@H]1O[C@H](CO)[C@@H](O)[C@H](O)[C@H]1O [ethyl beta-glucopyranoside] | 1.41 | 1.17 | .826
CCCCC/C=C\C/C=C\C/C=C\C/C=C\CCCC(=O)O[C@H](CO/C=C\CCCCCCCCCCCCCC)COP(=O)([O-])OCC[N+](C)(C)C [1-(1-enyl-palmitoyl)-2-arachidonoyl-GPC (P-16:0/20:4)] | 1.46 | 1.30 | .891
sphingomyelin (d17:1/14:0, d16:1/15:0) | 1.32 | 1.02 | .769
CSC[C@H](NC(=O)CC[C@H](N)C(=O)O)C(=O)NCC(=O)O [S-methylglutathione] | 1.19 | 1.11 | .931
O=C1Cc2ccccc2N1 [indolin-2-one] | 1.51 | 1.20 | .797
CC(C)(O)CC(=O)O [beta-hydroxyisovalerate] | 1.40 | 1.17 | .835
O=C(O)CNC(=O)/C=C/c1ccccc1 [cinnamoylglycine] | 1.99 | 1.54 | .776
CC(C)CCC[C@@H](C)[C@H]1CC[C@H]2[C@@H]3CCC4=CC(=O)CC[C@]4(C)[C@H]3CC[C@]12C [4-cholesten-3-one] | 1.29 | 1.12 | .870
CCCCCCCCCCCCCCCCCCCC(=O)OC(CC(=O)[O-])C[N+](C)(C)C (centres unmarked) [arachidoylcarnitine (C20)] | 1.36 | 1.21 | .889
CCc1ccc(OS(=O)(=O)[O-])cc1.[K+] [4-ethylphenylsulfate] | 17.2 | 4.08 | .238
O=C(O)CCc1ccccc1.O=C(O)CCc1ccccc1 [3-phenylpropionate (hydrocinnamate)] | 1.62 | 1.39 | .855
CCCCC/C=C\C/C=C\C/C=C\C/C=C\CCCC(=O)O[C@H](COC(=O)CCCCCCC/C=C\C/C=C\CCCCC)COP(=O)([O-])OCC[N+](C)(C)C [1-linoleoyl-2-arachidonoyl-GPC (18:2/20:4n6)] | 1.36 | 1.15 | .846
enterolactone sulfate | 3.42 | 1.63 | .478
CCCCC/C=C\C/C=C\C/C=C\C/C=C\CCCC(=O)O[C@H](COC(=O)CCCCCCC/C=C\C/C=C\CCCCC)COP(=O)(O)OCCN [1-linoleoyl-2-arachidonoyl-GPE (18:2/20:4)] | 1.48 | 1.26 | .854
eicosenamide (20:1) | 1.43 | 1.27 | .885
Cc1ncc(CO)c(C(=O)O)c1O [pyridoxate] | 1.34 | 1.21 | .902
C[C@H](CCC(=O)O)[C@H]1CC[C@H]2[C@@H]3[C@@H](O)C[C@@H]4C[C@H](O)CC[C@]4(C)[C@H]3CC[C@]12C [ursodeoxycholate] | 4.07 | 2.16 | .530
CCCCC/C=C\C/C=C\C/C=C\C/C=C\CCCC(=O)OC[C@@H](O)COP(=O)(O)OC1C(O)C(O)C(O)C(O)C1O (some centres unmarked) [1-arachidonoyl-GPI (20:4)] | 1.48 | 1.11 | .754
tetradecadienedioate (C14:2-DC) | 2.09 | 1.58 | .756
CCCCC/C=C\C/C=C\C/C=C\C/C=C\CCCC(=O)OC[C@@H](O)COP(=O)(O)O [1-arachidonoyl-GPA (20:4)] | 1.80 | 1.17 | .652
C[C@H](CCC(=O)O)[C@H]1CC[C@H]2[C@@H]3C[C@H](O)[C@@H]4C[C@H](O)CC[C@]4(C)[C@H]3CC[C@]12C [hyodeoxycholate] | 14.7 | 3.94 | .269
